The source of these data is patent publication US20240299318A1, “AMISELIMOD FOR PREVENTING, TREATING OR AMELIORATING ULCERATIVE COLITIS” (Bausch Health Ireland Limited, priority 2021, published 2024).

What is called half-life is the time in which the quantity being followed falls by half.

SMILES strings stand for the structures. Read-outs that look alike come from different tables or passages of the source.

The target in one series is human S1P1 receptor (Homo sapiens, UniProt P21453). Briefly: agonistic activity at human S1P1 receptor. The note with it: compared with S1P4 and S1P5. The series is classed as biochemical.
Chain of human S1P1 receptor (P21453 whole entry): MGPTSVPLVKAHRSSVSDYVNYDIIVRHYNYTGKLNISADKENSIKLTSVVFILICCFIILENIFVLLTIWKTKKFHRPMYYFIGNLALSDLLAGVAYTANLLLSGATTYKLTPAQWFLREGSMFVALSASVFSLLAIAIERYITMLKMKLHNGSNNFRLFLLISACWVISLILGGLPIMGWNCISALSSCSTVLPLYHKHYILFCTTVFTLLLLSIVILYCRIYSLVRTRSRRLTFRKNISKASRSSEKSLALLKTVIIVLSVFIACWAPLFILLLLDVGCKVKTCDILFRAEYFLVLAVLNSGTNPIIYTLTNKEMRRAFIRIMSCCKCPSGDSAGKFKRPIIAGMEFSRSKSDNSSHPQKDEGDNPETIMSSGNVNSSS
Another series deals with T1, human S1P4 receptor (Homo sapiens, UniProt O95977).
T1 sequence (O95977 1-384): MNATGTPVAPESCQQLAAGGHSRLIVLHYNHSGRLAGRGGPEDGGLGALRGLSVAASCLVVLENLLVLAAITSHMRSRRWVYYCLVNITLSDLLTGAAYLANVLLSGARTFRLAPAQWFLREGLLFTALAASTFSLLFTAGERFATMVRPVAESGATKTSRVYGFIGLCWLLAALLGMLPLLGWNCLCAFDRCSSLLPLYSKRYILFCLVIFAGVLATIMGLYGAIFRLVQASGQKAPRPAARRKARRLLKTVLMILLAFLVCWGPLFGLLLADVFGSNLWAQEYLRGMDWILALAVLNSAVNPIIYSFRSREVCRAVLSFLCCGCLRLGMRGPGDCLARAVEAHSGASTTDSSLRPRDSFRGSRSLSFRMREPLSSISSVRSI
Briefly: agonistic activity at human S1P4 receptor. The note with it: less potent than at human S1P1 receptor. The series is classed as biochemical.

The target of another series is human S1Ps receptor (Homo sapiens, UniProt Q9H228). Briefly: agonistic activity at human S1Ps receptor. The series is classed as biochemical. The note with it: less potent than at human S1P1 receptor.
Chain of human S1Ps receptor (Q9H228 whole entry): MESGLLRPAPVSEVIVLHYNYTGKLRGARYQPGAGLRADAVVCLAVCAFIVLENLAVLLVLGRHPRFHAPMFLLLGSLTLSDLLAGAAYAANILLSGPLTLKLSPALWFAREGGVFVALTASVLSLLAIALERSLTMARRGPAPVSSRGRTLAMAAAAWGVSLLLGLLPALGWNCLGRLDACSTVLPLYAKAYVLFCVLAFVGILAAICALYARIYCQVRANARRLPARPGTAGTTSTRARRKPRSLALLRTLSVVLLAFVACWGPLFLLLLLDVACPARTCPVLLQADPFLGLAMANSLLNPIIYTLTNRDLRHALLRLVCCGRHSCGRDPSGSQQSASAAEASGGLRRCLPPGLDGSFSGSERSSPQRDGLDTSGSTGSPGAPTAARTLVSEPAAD
The next series addresses human S1P2 receptor (Homo sapiens, UniProt O95136). Briefly: agonistic activity at human S1P2 receptor. The series is classed as biochemical.
A further series addresses S1P3 receptor (Homo sapiens, UniProt Q99500). Briefly: agonistic activity at S1P3 receptor. The class given is biochemical.
Series [1] in a line: half-life and accumulation to steady state. The class given is in vivo, humans. The note with it: for half-life: in humans; for period of accumulation to steady state: inferred from long half-life.
The nature of series [2]: study of amiselimod 0.4 mg QD: steady state, AUC, Cmax, lymphocyte counts. The class given is in vivo. The note with it: for increase of steady-state AUC on day 13 compared with day 1 / increase of steady-state Cmax on day 13 compared with day 1: amiselimod 0.4 mg QD. The method, then: Amiselimod has a half-life of about 400 hours. For example, amiselimod has a terminal half-life that is about 20 times longer than etrasimod, which has a half-life of about 17-20 hours. In a study, a daily dose of amiselimod achieved a therapeutic steady state after 14 days of 0.4 mg QD administration. On day 13, the steady-state AUC and Cmax for amiselimod 0.4 mg QD increased by 10-fold for amiselimod and by 4-fold for amiselimod-P compared with day 1. This increase in AUC and Cmax correlated with gradual decrease in absolute lymphocyte counts. The reduction in lymphocyte counts was maintained after amiselimod discontinuation, indicating a persistent therapeutic amiselimod AUC owing in part to the associated half-life. Accordingly, amiselimod may be administered in accordance with the methods described herein less frequently than once daily to achieve the desired treatment such, as for example, maintenance of Ulcerative Colitis. In some embodiments, the second dose may be administered during the second administration period (e.g., the maintenance dose phase) QD, BID, TID, or QID every other day during the second administration period or every two days during the second administration period or every three days during the second administration period or every four days during the second administration period or every five days during the second administration period or every six days during the second administration period or every seven days during the second administration period.

The subject of the next series is healthy subjects. Briefly: Phase 1 randomized, double-blind, placebo-controlled safety study, upwardly titrated amiselimod. The series is classed as in vivo, human. The note with it: for discontinuation rate: safety population, 95 subjects per group. The method, then: The safety of amiselimod in healthy subjects was evaluated in a Phase 1 randomized, double-blind, placebo-controlled study where the dose of amiselimod was upwardly titrated.
A randomized, double-blind, multiple-dose, placebo-controlled, parallel study with a nested crossover design evaluated the safety and tolerability profile of amiselimod. Healthy adults were randomized in a 2:1:1 ratio during a 28-day treatment period accordingly: a single dose of placebo followed by oral amiselimod (upwardly titrated in doses ranging from 0.4 to 1.6 mg to achieve steady-state concentrations); a single dose of oral moxifloxacin 400 mg followed by placebo; or placebo followed by a single dose of moxifloxacin 400 mg (for the safety analysis, moxifloxacin arms were combined). The safety population included all subjects who received at least one dose of treatment. Adverse events (AE) and serious AEs were collected. Treatment-emergent AEs were defined as an AE that was starting or worsening at the time of or after study drug administration. Changes in clinical laboratory parameters (including lymphocyte counts), physical examinations, vital signs, and electrocardiogram parameters (including heart rate, PR, QRS, and QT intervals) were recorded. Subjects were permitted to withdraw if lymphocyte counts were ≤0.2×10^9/L.

In series [3] the test system is peripheral blood lymphocytes (PBLs). Briefly: reduction of peripheral blood lymphocytes after oral dose, mice. The class given is in vivo. The note with it: oral dose of 0.1 mg/kg or higher.
For series [4] the test system is unchanged. Briefly: reduction of peripheral blood lymphocytes after oral dose, rats. The note with it: oral dose of 0.1 mg/kg or higher. The series is classed as in vivo.
For series [5] the test system is unchanged. Briefly: reduction of peripheral blood lymphocytes after oral dose, cynomolgus monkeys. The class given is in vivo. The note with it: oral dose of 0.1 mg/kg or higher.
The subject of series [6] is colitis in the adoptive transfer of CD4+CD45RBhigh T cells. Briefly: colitis in the adoptive transfer of CD4+CD45RBhigh T cells in SCID mice. The series is classed as in vivo. The note with it: oral administration.
For another series, the system named is heart rate. Briefly: negative chronotropic activity. The note with it: in vivo. An excerpt:
Chronotropic effects in the heart can include changes in the heart rate or rhythm. Negative chronotropic effects are those that result in a decreased heart rate and include bradyarrhythmia (bradycardia).

For series [7] the following is noted: comparator etrasimod; cited from earlier work.

Chain of human S1P2 receptor (O95136 whole entry): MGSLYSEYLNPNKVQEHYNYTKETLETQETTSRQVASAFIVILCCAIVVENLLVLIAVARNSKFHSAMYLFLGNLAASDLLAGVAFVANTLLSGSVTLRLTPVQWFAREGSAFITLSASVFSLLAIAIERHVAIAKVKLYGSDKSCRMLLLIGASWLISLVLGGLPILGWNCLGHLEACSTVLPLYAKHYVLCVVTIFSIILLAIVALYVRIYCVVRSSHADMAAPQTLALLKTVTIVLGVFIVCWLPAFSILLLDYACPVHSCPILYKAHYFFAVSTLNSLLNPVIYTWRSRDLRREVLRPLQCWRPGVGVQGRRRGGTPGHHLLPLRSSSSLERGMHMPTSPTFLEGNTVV
Chain of S1P3 receptor (Q99500 whole entry): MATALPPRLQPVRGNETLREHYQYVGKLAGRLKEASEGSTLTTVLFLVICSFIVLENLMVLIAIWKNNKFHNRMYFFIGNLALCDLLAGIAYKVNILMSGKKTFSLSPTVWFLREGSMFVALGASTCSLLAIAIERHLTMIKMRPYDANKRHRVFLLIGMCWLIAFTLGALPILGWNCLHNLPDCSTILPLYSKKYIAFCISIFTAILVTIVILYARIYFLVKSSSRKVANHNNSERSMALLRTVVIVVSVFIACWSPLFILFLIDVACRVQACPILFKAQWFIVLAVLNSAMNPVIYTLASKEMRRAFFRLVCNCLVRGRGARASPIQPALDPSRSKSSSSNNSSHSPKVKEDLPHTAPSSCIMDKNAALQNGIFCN

As to `CCCCCCCOc1ccc(CCC(N)(CO)COP(=O)(O)O)cc1C(F)(F)F` (stereo in doubt) [(S)-MT-1303-P], at human S1P1 receptor, the “agonistic activity at human S1P1 receptor” value is “more potently than at human S1P4 receptor and human S1Ps receptor”. For the same molecule, the “agonistic activity at human S1P4 receptor” value at human S1P4 receptor was “agonistic activity”. Moreover, the “agonistic activity at human S1Ps receptor” value at human S1Ps receptor is given as “agonistic activity”. Besides, the “agonistic activity at human S1P2 receptor” value on human S1P2 receptor is recorded as “no agonistic activity”. At S1P3 receptor, the “agonistic activity at S1P3 receptor” value was “no agonistic activity”.
Regarding `CCCCCCCOc1ccc(CC[C@@](N)(CO)COP(=O)(O)O)cc1C(F)(F)F` [MT-1303-P], in [1], the half-life entry is “approximately 400 hours” and the “period of accumulation to steady state” value is “about 10 weeks”. Besides, in [2], the “increase of steady-state AUC on day 13 compared with day 1” value turned out to be 4 fold and the “increase of steady-state Cmax on day 13 compared with day 1” value amounted to 4 fold.
In the case of `COc1c(N2C[C@@H]3CCCN[C@@H]3C2)c(F)cc2c(=O)c(C(=O)O)cn(C3CC3)c12` [Moxifloxacin, moxifloxacin, reference compound], in the series with healthy subjects (Days 1-26, n = 95), the Constipation is listed as 11 (12) n (%), the Dizziness was 1 (1) n (%), the Headache is on record as 12 (13) n (%) and the “Number of subjects with an adverse event” value is recorded as 49 (52) n (%). In the series with healthy subjects (Days 1-26, n = 95), the “Upper respiratory tract infection” value is 1 (1) n (%) and the “White blood cell count decreased” value is on record as 0 n (%). In the series with healthy subjects (Days 27+, n = 46), the Constipation is 0 n (%), the Dizziness is reported as 1 (2) n (%), the Headache is reported as 0 n (%) and the “Number of subjects with an adverse event” value was 7 (15) n (%). Also, in the series with healthy subjects (Days 27+, n = 46), the “Upper respiratory tract infection” value was 0 n (%) and the “White blood cell count decreased” value is 0 n (%). The molecule further returned a discontinuation rate with healthy subjects of 4%.
For the molecule `CCCCCCCOc1ccc(CCC(N)(CO)CO)cc1C(F)(F)F` [amiselimod], the half-life in [1] (human, in vivo, read-out: half-life (converted)) was approximately 16.7 days. In series [1], the half-life entry is “approximately 400 hours” and the “period of accumulation to steady state” value is reported as “about 10 weeks”. Further, the “terminal half-life relative to etrasimod” value in series [1] (longer than etrasimod) is “about 20 times”. In [3], the “number of peripheral blood lymphocytes (PBLs)” value (“number … (PBLs)” for short) was “significantly reduced”. In series [4], the “number … (PBLs)” value is recorded as “significantly reduced”. The “number … (PBLs)” value in [5] is listed as “significantly reduced”. In addition, in series [6], the colitis result was “reduced colitis” and the “effect on colitis compared with murine anti-TNF-α antibody” value was “comparable to that of a murine anti-tumor necrosis factor-α (TNF-α) antibody”. Moreover, in the series with heart rate, the negative chronotropic activity entry was “lack of negative chronotropic activity”. Besides, in [2] (0.4 mg QD administration), the “time to therapeutic steady state” value is 14 days. Besides, in [2] (after amiselimod discontinuation), the “reduction in lymphocyte counts after discontinuation” value is “maintained”. In addition, in series [2], the “increase of steady-state AUC on day 13 compared with day 1” value worked out at 10 fold and the “increase of steady-state Cmax on day 13 compared with day 1” value is recorded as 10 fold. In the series on healthy subjects (Days 1-13, n = 95), the Constipation was 8 (8) n (%), the Dizziness is listed as 5 (5) n (%), the Headache was 4 (4) n (%) and the “Number of subjects with an adverse event” value is recorded as 55 (58) n (%). Also, in the series with healthy subjects (Days 1-13, n = 95), the “Upper respiratory tract infection” value is 1 (1) n (%) and the “White blood cell count decreased” value is 18 (19) n (%). Besides, in the series with healthy subjects (Days 14+, n = 92), the Constipation is 6 (7) n (%), the Dizziness is reported as 6 (7) n (%), the Headache is 11 (12) n (%) and the “Number of subjects with an adverse event” value is 57 (62) n (%). Also, in the series on healthy subjects (Days 14+, n = 92), the “Upper respiratory tract infection” value was 6 (7) n (%) and the “White blood cell count decreased” value is listed as 13 (14) n (%). Further, the “amiselimod-related serious AE of atrial fibrillation” value with healthy subjects (day 26, after amiselimod 1.6 mg for 3 of the preceding 4 days) is “One subject”. For the same molecule, the “mean absolute lymphocyte count, nadir” value in the series on healthy subjects (day 27) is 0.424 thou/μL. In addition, the “changes to vital signs, physical examinations, and ECG parameters” value in the series on healthy subjects (in vivo) is “within normal limits”. Besides, in the series with healthy subjects (multiple, upwardly titrated doses, healthy subjects), the tolerability result is on record as “generally well tolerated”. In the series on healthy subjects (predose), the “mean absolute lymphocyte count” value was 1.681 thou/μL. Besides, the discontinuation rate in the series with healthy subjects worked out at 8%.
Take `O=C(O)C[C@H]1CCc2c1[nH]c1ccc(OCc3ccc(C4CCCC4)c(C(F)(F)F)c3)cc21` [etrasimod]: the half-life in [7] was 0.708 to 0.833 days.
